Assay results published in patent publication US20040053234A1, “Polynucletides that control delta-6 desaturase genes and methods for identifying compounds for modulating delta-6 desaturase” (priority 2000, published 2004).
Like-named read-outs stand apart in the source and are kept apart here. Marks after values point to notes of the source that are not given here.

Tests used:
hD6D-1 control region = assay: Luciferase activity of HepG2 clones stably transfected with hD6D-1 control region-luciferase construct pGh4015.1; type: cell-based, human
Method: Stable transfection was performed using the HepG2 cell line, which was adapted to grow in tissue culture dishes treated with 0.1% gelatin. The day before transfection, the cells were plated into 60 mm tissue culture dishes, so that they were 85-95% confluent on the day of transfection. For each dish of cells to be transfected, 10 μg of plasmid DNA (pGh4015.1) along with 1 μg of the vector pRSV-NEO (ATCC# 37198), was diluted in 500 μl of Opti-MEM (GIBCO-BRL) without serum. For each dish of cells to be transfected, 10 μl of Lipofectamine 2000 reagent (GIBCO BRL) was diluted in 500 μl of Opti-MEM, and incubated at room temperature for 5 min. The diluted DNA was mixed with the diluted lipofectamine and incubated at room temperature for 20 min. The DNA-lipofectamine complexes (1 ml) were put directly into each dish of cells to be transfected and mixed gently by rocking the dish back and forth The cells were incubated at 37° C. in a CO2 incubator for 24 h Each transfected dish of cells was then passaged into two 150 mm tissue culture dishes. The following day, geneticin (GIBCO BRL) was added to the culture medium at a concentration of 800 μg/ml. The cells were kept in selection for 4 weeks. Clones were transferred into a 96-well plate (one clone per well) until they reached confluence. Subsequently, the clones were transferred to a 24-well plate before been tested for luciferase activity.
The luciferase assays were done using the Luciferase Assay System from Promega (Promega, Wis.). Briefly, the cells grown in a 24well plate, were washed with PBS (Ca^2+ and Mg^2+ free) and lysed with about 100 μl of 1× CCLR (Cell Culture Lysis Reagent, Promega). Twenty μl of cell lysate was dispensed into a luminometer tube. The tube was placed in the luminometer (Berthold #9707, Monolight 3010, PharMingen, San Diego, Calif.) and 100 μl of Luciferase Assay Reagent (Promega) was injected into the tube. The luminometer was programmed to perform a 3-second measurement delay followed by a 15-second measurement read for luciferase activity. The results were expressed in Relative Light Unit per 15 seconds (RLU/15s).
The HepG2 stable clone 19 and 72, were plated in a 24-well plate (one plate per clone) treated with 0.1% gelatin, containing α-MEM supplemented with 10% FBS (Fetal Bovine Serum) and 200 μg/ml of geneticin (all from GIBCO BRL). When the cells reached about 80% confluence, the culture medium was replace with Williams' medium E (GIBCO) containing insulin (1 μM), dexamethasone (1 nM) and 0.27% BSA (Bovine Serum Albumin) all from Sigma. Six wells for each plate were treated with DHA at a concentration of 0, 25, 50 and 100 μM. After an incubation time of 6, 24 and 48 h, the wells were washed with PBS and the cells lysed with 100 μl of 1× CCLR (Promega). The luciferase assays were performed using a single tube luminometer using the Luciferase Assay System from Promega as indicated above.

delta-6-desaturase = type: in vivo, rat; conditions: for D6D activity: hepatic microsomes
Method: As described in other Examples, female Wistar rats were intraperitoneally (i.p.) injected with 50 mg of streptozotocin per kg of body weight. Three days later, animals received a second dose of streptozotocin (25 mg/kg body weight). Two and 7 weeks after the onset of diabetes, non-fasted control and streptozotocin (blood glucose levels 21 to >33 mmoles/L) treated rats were put under light halothane (15% in mineral oil) anaesthesia and sacrificed by exsanguination between 9:00 and 10:00 a.m. Under these experimental conditions, variations in enzyme activity caused by circadian rhythm (Actis Dato et al., 1973, Lipids, 8: 1-6) can be avoided and a substantial (although submaximal) activity of liver desaturase can be obtained (Actis Dato et al., 1973, Lipids, 8: 1-6 and Inkpen et al., 1969, J. Lipid Res., 10: 277-282). Livers were quickly rinsed with cold 0.9% NaCl solution, weighed and minced with scissors. All procedures were performed at 4° C. unless otherwise specified. Microsomes were isolated by differential ultracentrifugation as previously described (de Antueno et al., 1994, Lipids, 29: 327-331). Briefly, livers were homogenized in a solution (1:3 w/v) containing 0.25 M sucrose, 62 mM potassium phosphate buffer (pH 7.0), 0.15 M KCl, 1.5 mM N-acetylcysteine, 5 mM MgCl2, and 0.1 mM EDTA using 4 strokes of a Potter-Elvehjem tissue homogenizer. […] The absence of mitochondrial contamination was enzymatically assessed as previously described (Kilberg M. S. and Christensen H. N., 1979, Biochemistry, 18: 1525-1530). The protein concentration was measured by the method of Lowry et al. with bovine serum albumin as the standard (Lowry et al., 1951, J. Biol. Chem., 193: 265-275).
(§1) The activities of delta-5 and delta-6 desaturases were determined by measuring the conversion of [1-^14C]20:3n-6 (dihomogamma-linolenic acid) to [1-^14C]20:4n-6 (arachidonic acid) and [1-^14C]18:2n-6 (linoleic acid) to [1-^14C]18:3n-6 (gamma-linolenic acid), respectively. […]
(§2) Radiolabeled fatty acid methyl esters (FAME) were analyzed as previously described (de Antueno et al., 1993, Lipids, 28: 285-290). […]

delta-5-desaturase = assay: Hepatic delta-5-desaturase activity in streptozotocin treated rats; type: in vivo, rat; conditions: hepatic microsomes
Method: As described in other Examples, female Wistar rats were intraperitoneally (i.p.) injected with 50 mg of streptozotocin per kg of body weight. Three days later, animals received a second dose of streptozotocin (25 mg/kg body weight). Two and 7 weeks after the onset of diabetes, non-fasted control and streptozotocin (blood glucose levels 21 to >33 mmoles/L) treated rats were put under light halothane (15% in mineral oil) anaesthesia and sacrificed by exsanguination between 9:00 and 10:00 a.m. […] The absence of mitochondrial contamination was enzymatically assessed as previously described (Kilberg M. S. and Christensen H. N., 1979, Biochemistry, 18: 1525-1530). The protein concentration was measured by the method of Lowry et al. with bovine serum albumin as the standard (Lowry et al., 1951, J. Biol. Chem., 193: 265-275).
as §1, §2

[1] = Plasma phospholipid arachidonic acid content in streptozotocin-induced diabetic rats; type: in vivo, rat
Method: Eighteen rats were injected with 75 mg STZ/kg bd wt to induce the diabetic state. After 4 days the blood glucose level in each of the STZ rats was checked. The blood sample was obtained from the tail vein. […] The diabetic rats were housed 2 per cage. After 2 weeks, approximately one half of the diabetic rats and control rats were sacrificed. After 7 weeks, the remaining diabetic and control rats were sacrificed. By sacrificing controls at the same time we eliminated any possible age effect when completing our data analysis. The rats were sacrificed by exsanguination and tissues were removed for fatty acid analyses. […]
The different lipid classes from the RBCs (phospholipids), plasma and liver (phospholipids, free fatty acids, triglycerides and cholesterol esters) were separated using neutral lipid thin-layer chromatography. […] Compounds were detected by spraying the plates with 2,7-dichlorofluorescein and the silica gel containing each of the lipid class bands was scraped from the plate and placed in screw cap test tubes.
Four ml of BF3-methanol was added to the scraped silica gel fractions or the dry cholesterol ester fraction and heated for 30 min at 90° C. […] The fatty acid methyl esters (FAME) were dissolved in HPLC grade hexane and analyzed by gas chromatography. […]

Which results are given for `CC/C=C\C/C=C\C/C=C\C/C=C\C/C=C\C/C=C\CCC(=O)O` [DHA, docosahexaenoic acid]?
Luciferase activity (hD6D-1 control region; HepG2 clone 19, DHA 25 μM, 6 h): 3.91E+06 RLU/15 s; Luciferase activity (hD6D-1 control region; HepG2 clone 19, DHA 25 μM, 24 h): 8.33E+06 RLU/15 s; Luciferase activity (hD6D-1 control region; HepG2 clone 19, DHA 25 μM, 48 h): 1.35E+07 RLU/15 s; Luciferase activity (hD6D-1 control region; HepG2 clone 19, DHA 50 μM, 6 h): 3.96E+06 RLU/15 s; Luciferase activity (hD6D-1 control region; HepG2 clone 19, DHA 50 μM, 24 h): 6.32E+06 RLU/15 s; Luciferase activity (hD6D-1 control region; HepG2 clone 19, DHA 50 μM, 48 h): 8.73E+06 RLU/15 s; Luciferase activity (hD6D-1 control region; HepG2 clone 19, DHA 100 μM, 6 h): 2.11E+06 RLU/15 s; Luciferase activity (hD6D-1 control region; HepG2 clone 19, DHA 100 μM, 24 h): 3.87E+06 RLU/15 s; Luciferase activity (hD6D-1 control region; HepG2 clone 19, DHA 100 μM, 48 h): 4.16E+06 RLU/15 s; Luciferase activity (hD6D-1 control region; HepG2 clone 72, DHA 25 μM, 6 h): 8.27E+05 RLU/15 s; Luciferase activity (hD6D-1 control region; HepG2 clone 72, DHA 25 μM, 24 h): 2.66E+06 RLU/15 s; Luciferase activity (hD6D-1 control region; HepG2 clone 72, DHA 25 μM, 48 h): 3.68E+06 RLU/15 s; Luciferase activity (hD6D-1 control region; HepG2 clone 72, DHA 50 μM, 6 h): 6.69E+05 RLU/15 s; Luciferase activity (hD6D-1 control region; HepG2 clone 72, DHA 50 μM, 24 h): 1.43E+06 RLU/15 s; Luciferase activity (hD6D-1 control region; HepG2 clone 72, DHA 50 μM, 48 h): 2.18E+06 RLU/15 s; Luciferase activity (hD6D-1 control region; HepG2 clone 72, DHA 100 μM, 6 h): 3.07E+05 RLU/15 s; Luciferase activity (hD6D-1 control region; HepG2 clone 72, DHA 100 μM, 24 h): 8.55E+05 RLU/15 s; Luciferase activity (hD6D-1 control region; HepG2 clone 72, DHA 100 μM, 48 h): 9.80E+05 RLU/15 s

For `CN(N=O)C(=O)N[C@H]1C(O)O[C@H](CO)[C@@H](O)[C@@H]1O` (stereo partly drawn) [STZ, 2-deoxy-2-[([methylnitroso-amino]carbonyl)amino]-D-glucopyranose], which D6D activity (delta-6-desaturase; 2 weeks after STZ treatment) is on record?
The D6D activity was 125.4 ± 34^a pmol/mg microsomal protein/min.

What about the D6D activity (delta-6-desaturase; 7 weeks after STZ treatment) of the same molecule?
The D6D activity was 102.8 ± 29^c pmol/mg microsomal protein/min.

And the “Reduction of delta-6-desaturase activity in hepatic microsomes compared to control rats” value (delta-6-desaturase; streptozotocin diabetic rats)?
The value was 37%.

And the D5D activity (delta-5-desaturase; 2 weeks after STZ treatment)?
Its D5D activity is 195.6 ± 56^b pmol/mg microsomal protein/min.

And the D5D activity (delta-5-desaturase; 7 weeks after STZ treatment)?
The D5D activity was 129.7 ± 30^d pmol/mg microsomal protein/min.

And the “Reduction of plasma phospholipid AA content” value ([1]; 2 week streptozotocin-induced diabetic rats)?
The value was 31%.

What about the “Reduction of plasma phospholipid AA content” value ([1]; 7 week streptozotocin-induced diabetic rats) of the same molecule?
The value was 27%.
